Laboratory results reported in US9375000B2, “Pesticidal arylpyrrolidines” (Bayer Intellectual Property GmbH, priority 2011, dated 2016).

Key:
Format in all cases: in vivo
[1] = test system: Two-Spotted Spider Mite (Tetranychus urticae); assay: Two-spotted spider mite (Tetranychus urticae) spray test on kidney bean; details: after 7 days
Outline: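 Kidney bean plants at the two-leaf stage carried 50-100 adult mites and were sprayed one day later with compound in DMF/polyoxyethylene alkyl phenyl ether diluted in water. Ammonium salt and penetration enhancer at 1000 ppm were added if needed. Acaricidal activity (% mites killed) was scored after 7 days in a greenhouse.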

[2] = test system: Cucurbit Leaf Beetle (Aulacophora femoralis); assay: Cucurbit leaf beetle (Aulacophora femoralis) cucumber leaf dip test; details: after 7 days
Outline: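 Cucumber leaves dipped in compound formulated with DMF and polyoxyethylene alkyl phenyl ether, diluted in water, with ammonium salt or ammonium salt plus penetration enhancer at 1000 ppm added if necessary; dried leaves placed on sterilized soil with five second-instar larvae. Kept at 25° C; larval mortality counted after 7 days.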

[3] = test system: Larvae of Spodoptera litura; assay: Larvae of Spodoptera litura, method using artificial feeds; details: artificial feed, after 7 days
Outline: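 Compound formulated in dimethylformamide with polyoxyethylene alkyl phenyl ether emulsifier, water-diluted and poured onto artificial diet. Five 3rd-instar Spodoptera litura larvae per cup, held at 25° C and 50-60% humidity. Mortality after 7 days expressed as pesticidal ratio.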

Thrips palmi = Thrips palmi spray test (THRIPL); details: after 6 days
Procedure: Unless not mentioned otherwise, the test solutions were prepared as follows:
Solvent: 3 parts by weight Dimethylformamide
Emulsifier: 1 part by weight Polyoxyethylene alkyl phenyl ether
In order to make an appropriate formulation of an active compound, 1 part by weight of the active compound is mixed with the above mentioned amount of solvent and emulsifier and the mixture is diluted with water to a prescribed concentration. Ammonium salt or ammonium salt and penetration enhancer in a dosage of 1000 ppm are added to the desired concentration if necessary.
The compound solutions are sprayed to a cucumber seedling (Cucumis sativus). After drying, the treated plant is placed in a plastic stand. About 100 thrips-eggs (Thrips palmi) on a piece of filter paper are attached to the plant and covered with a cage to keep 100% humidity. The plant is kept in a room at 23° C. After 6 days activity in % is evaluated by feeding damage degree. An insecticidal activity of 100 means that there was no feeding damage, whereas an insecticidal activity of 0% means that there is no difference to the untreated control.

[4] = active compound concentration 4 ppm
[5] = active compound concentration 20 ppm
[6] = active compound concentration 100 ppm

SMILES | acaricidal activity [1, 4] [%] | acaricidal activity [1, 5] [%] | insecticidal activity [2, 4] [%] | insecticidal activity [2, 5] [%] | insecticidal activity (pesticidal ratio) [3, 4] [%] | insecticidal activity (pesticidal ratio) [3, 5] [%] | insecticidal activity (by feeding damage degree) (Thrips palmi; [5]) [%] | acaricidal activity [1, 6] [%] | insecticidal activity (by feeding damage degree) (Thrips palmi; [6]) [%]
O=C(CC1CC1)NCc1ccc(N2CCC(c3cc(Cl)cc(C(F)(F)F)c3)(C(F)(F)F)C2O)nc1C(F)(F)F (mixture of isomers) [A3-270] | 100 | 100 | 100 | 100 | 100 | 100 | 90 | – | –
O=C(NCc1ccc(N2CCC(c3cc(Cl)cc(Cl)c3F)(C(F)(F)F)C2O)nc1C(F)(F)F)C1CC1 (stereo not drawn) [A3-348] | 100 | – | 100 | – | 100 | – | 90 | – | –
CS(=O)(=O)CC(=O)NCc1cnc(N2CCC(c3cc(C(F)(F)F)cc(C(F)(F)F)c3)(C(F)(F)F)C2O)cc1C(F)(F)F (stereo not drawn) [A5-33] | – | 98 | 100 | 100 | 100 | 100 | 90 | – | –
Cc1nc(N2CCC(c3cc(Cl)c(Cl)c(Cl)c3)(C(F)(F)F)C2O)ncc1CNC(=O)C1CC1 (stereo not drawn) [A4-49] | 98 | – | – | 100 | 100 | 100 | 98 | – | –
CS(=O)(=O)CC(=O)NCc1ccc(N2CCC(c3cccc(C(F)(F)F)c3)(C(F)(F)F)C2O)nc1C(F)(F)F (racemic) [A3-231] | 100 | 100 | 100 | 100 | 80 | – | 90 | – | –
O=C(CC(F)(F)F)NCc1cnc(N2CCC(c3cc(Cl)c(Cl)c(Cl)c3)(C(F)(F)F)C2O)nc1C(F)F (stereo not drawn) [A4-221] | 100 | – | 100 | – | 100 | – | 90 | – | –
CCC(=O)NCc1ccc(N2CCC(c3cc(F)cc(C(F)(F)F)c3)(C(F)(F)F)C2O)cc1C(F)(F)F (stereo not drawn) [A1-316] | 100 | 100 | 100 | 100 | 100 | 100 | 90 | – | –
O=C(CC1CC1)NCc1ccc(N2CCC(c3cc(Cl)cc(Cl)c3)(C(F)(F)F)C2O)nc1C(F)(F)F (stereo not drawn) [A3-6] | 100 | 100 | 100 | 100 | 100 | 100 | 90 | – | –
O=C(NCc1cnc(N2CCC(c3cc(Cl)c(Cl)c(Cl)c3)(C(F)(F)F)C2O)nc1C(F)F)C1CC1 (stereo not drawn) [A4-219] | 100 | – | 100 | – | 100 | – | 90 | – | –
CS(=O)(=O)CC(=O)NCc1ccc(N2CCC(c3cc(Cl)cc(Cl)c3)(C(F)(F)F)C2O)nc1C(F)(F)F (stereo not drawn) [A3-11] | 100 | 100 | 100 | 100 | 100 | 100 | 98 | – | –
O=C(NCc1ccc(N2CCC(c3cc(Cl)c(F)c(Cl)c3F)(C(F)(F)F)C2O)cc1Br)C1CC1 (stereo not drawn) [A1-433] | 100 | – | 100 | – | 100 | – | 90 | – | –
CCC(=O)NCc1cc(F)c(N2CCC(c3cc(C(F)(F)F)cc(C(F)(F)F)c3)(C(F)(F)F)C2O)nc1Cl (stereo not drawn) [A3-378] | – | – | 100 | – | 100 | – | – | 98 | 90
CC(=O)NCc1ccc(N2CCC(c3cc(C(F)(F)F)cc(C(F)(F)F)c3)(C(F)(F)F)C2O)cc1C(F)(F)F (mixture of isomers) [A1-56] | 100 | – | 100 | – | 100 | – | 98 | – | –
CC(C)C(=O)NCc1ccc(N2CCC(c3cc(Cl)c(Cl)c(Cl)c3)(C(F)(F)F)C2O)nc1C(F)(F)F (stereo not drawn) [A3-15] | 100 | 100 | – | – | 100 | 100 | 90 | – | –
CS(=O)(=O)CC(=O)NCc1ccc(N2CCC(c3cc(Cl)cc(C(F)(F)F)c3)(C(F)(F)F)C2O)nc1C(F)(F)F (stereo not drawn) [A3-275] | 100 | 100 | 100 | 100 | 100 | 100 | 98 | – | –
O=C(NCc1ccc(N2CCC(c3cc(C(F)(F)F)cc(C(F)(F)F)c3)(C(F)(F)F)C2O)cc1Br)C1CC1 (stereo not drawn) [A1-220] | 100 | – | 100 | – | 100 | – | 90 | – | –
O=C(CC1CC1)NCc1ccc(N2CCC(c3cc(Cl)c(Cl)c(Cl)c3)(C(F)(F)F)C2O)nc1C(F)(F)F (stereo not drawn) [A3-17] | 100 | 100 | – | – | 100 | 100 | 90 | – | –
O=C(NCc1ccc(N2CCC(c3cc(F)cc(C(F)(F)F)c3)(C(F)(F)F)C2O)cc1C(F)(F)F)C1CC1 (stereo not drawn) [A1-319] | 100 | 100 | 100 | 100 | 100 | 100 | 90 | – | –
O=C(CC(F)(F)F)NCc1cnc(N2CCC(c3cc(C(F)(F)F)cc(C(F)(F)F)c3)(C(F)(F)F)C2O)cc1C(F)(F)F (stereo not drawn) [A5-29] | – | 100 | 100 | 100 | 100 | 100 | 90 | – | –
CCC(=O)NCc1ccc(N2CCC(c3cc(Br)cc(Br)c3)(C(F)(F)F)C2O)cc1C(F)(F)F (stereo not drawn) [A1-250] | 100 | 100 | 100 | 100 | 100 | 100 | 90 | – | –
O=C(NCc1ccc(N2CCC(c3cc(C(F)(F)F)cc(C(F)(F)F)c3)(C(F)(F)F)C2O)cc1C(F)(F)F)C1CC1 (mixture of isomers) [A1-60] | – | 100 | 100 | – | 100 | – | 98 | – | –
CC(=O)NCc1ccc(N2CCC(c3cc(Cl)cc(C(F)(F)F)c3)(C(F)(F)F)C2O)nc1C(F)(F)F (mixture of isomers) [A3-265] | – | 100 | 100 | 100 | 100 | 100 | 90 | – | –
CCC(=O)NCc1cnc(N2CCC(c3cc(C(F)(F)F)cc(C(F)(F)F)c3)(C(F)(F)F)C2O)cc1C(F)(F)F (stereo not drawn) [A5-24] | – | 100 | 100 | 100 | 100 | 100 | 90 | – | –
CCC(=O)NCc1ccc(N2CCC(c3cc(C(F)(F)F)cc(C(F)(F)F)c3)(C(F)(F)F)C2O)cc1Br (stereo not drawn) [A1-217] | 100 | – | 100 | – | 100 | – | 90 | – | –
O=C(CC(F)(F)F)NCc1ccc(N2CCC(c3cc(Cl)c(Cl)c(Cl)c3)(C(F)(F)F)C2O)nc1C(F)(F)F (stereo not drawn) [A3-18] | 100 | 100 | 100 | 100 | 100 | 100 | 98 | – | –
CC(=O)NCc1ccc(N2CCC(c3cc(C(F)(F)F)cc(C(F)(F)F)c3)(C(F)(F)F)C2O)cc1Br (stereo not drawn) [A1-216] | 90 | – | 100 | – | 100 | – | 90 | – | –
